Tests used:
[1] = system: homozygous APP YAC transgenic mice, line R1.40; assay: Y-maze spontaneous alternation, working memory; assay type: in vivo; settings: day 33
Method: In order to examine the ability of tolfenamic acid to improve the learning and memory deficits in AD transgenic mice model, male and female homozygous APP YAC transgenic, line R1.40, and wild type C57BL/6 mice aging between 20-24 months were used. Four groups of similar age and gender variation were administered vehicle or tolfenamic acid daily via oral gavages for 34 days; one transgenic group was administered 5 mg/kg/day tolfenamic acid in corn oil (n=7); the second transgenic group was administered 50 mg/kg/day tolfenamic acid in corn oil (n=7), the third transgenic group was administered corn oil, the vehicle, and the last group which consisted of wild type C57BL/6 mice was administered vehicle (n=8). Upon conducting the 8 acquisition sessions, probe trials on Day 1 and Day 11 following the last day of training were performed to assess the long-term memory retention by studying the preference of the mice to the correct quadrant that contained the hidden platform. On day 33, mice were tested for spontaneous alternation in Y-maze, defined as the percentage of the number of arm entries different from the previous two entries divided by the total arm entries minus two. Finally, on Day 35, mice were euthanized and brain tissue was removed and stored at −80° C.

tau protein = assay: total tau protein levels in mouse cortex by Western blot; assay type: in vivo, mice; settings: 0, 5 and 50 mg/kg/day for 34 days; vs control; p<0.05; dose of the value not stated
Method: (§1) It has been discovered that tolfenamic acid lowers the levels of the transcription factor Sp1, and consequently reduce the levels of an Sp1 target gene, APP, along with its pathogenic cleavage product Aβ. […] Therefore, in the study design 0, 5 and 50 mg/kg/day tolfenamic acid was administered for 34 days. […] Total mRNA levels were analyzed by real time PCR with β-actin as endogenous control. Protein expression was measured by Western blot analysis and quantified as a ratio to the house keeping protein β-actin (antibodies: T9450, Sigma-Aldrich, MO; 4970, Cell Signaling, MA). […] Values shown are the mean ±SEM.

[2] = system: homozygous APP YAC transgenic mice, line R1.40; assay: Morris water maze, learning and long-term memory; assay type: in vivo
Method: In order to examine the ability of tolfenamic acid to improve the learning and memory deficits in AD transgenic mice model, male and female homozygous APP YAC transgenic, line R1.40, and wild type C57BL/6 mice aging between 20-24 months were used. Four groups of similar age and gender variation were administered vehicle or tolfenamic acid daily via oral gavages for 34 days; one transgenic group was administered 5 mg/kg/day tolfenamic acid in corn oil (n=7); the second transgenic group was administered 50 mg/kg/day tolfenamic acid in corn oil (n=7), the third transgenic group was administered corn oil, the vehicle, and the last group which consisted of wild type C57BL/6 mice was administered vehicle (n=8). After 14 days of daily dosing, mice were tested in Morris water maze. In this task, the mice had to locate the hidden platform by learning multiple spatial relationships between the platform and the distal extra-maze cues. On the first day, mice received a habituation trial in which they were allowed to swim freely for 60 seconds. On the following day and for a total of 8 days, mice received training sessions of 3 trials daily. The starting position for each trial was randomly assigned between the four possible positions while the platform position was fixed in each trial. Each animal was allowed to swim until they find the immersed hidden platform or for a maximum of 60 seconds. […]

CDK5 [3] = assay: CDK5 protein levels after tolfenamic acid treatment; assay type: in vivo, mice
Method: (§2) Since Sp1 also regulates CDK5 activators, the effects of tolfenamic acid on CDK5 were also tested. […] 3A (using one-way ANOVA F(2,13)=59.647, p=2.8×10^−7 Tukey-Kramer post-test p<0.05 for the C vs the 5 mg/kg group and for the C vs the 50 mg/kg group). […] When comparing the 50 mg/kg dose group to the control however, by Tukey-Kramer test, the 40% lowering in CDK5 from control was statistically significant (p<0.05).

tau gene = assay: tau mRNA expression in mouse cortex by real time PCR; assay type: in vivo, mice; settings: 0, 5 and 50 mg/kg/day for 34 days; vs control; dose of the value not stated
Method: as §1

CDK5 [4] = assay: CDK5 gene expression in the cerebral cortex; assay type: in vivo, mice; settings: daily administration for a month; 5 and 50 mg/kg groups vs control, p<0.05
Method: as §2

[5] = system: tau phosphorylated at Ser 235; assay: P-tau at Ser 235 by Western blotting; assay type: in vivo, mice; settings: 5 and 50 mg/kg groups vs control, p<0.05
Method: (§3) As phosphorylation of tau affects its function and its ability to bind to microtubules, it was important to test how phosphorylated tau is affected by the treatment. P-tau levels were analyzed by Western blotting using specific antibodies. P-tau at Ser 235 (as shown in FIG. 4A) and P-tau at Thr 181 (as shown in FIG. 4B) were lowered by both doses of tolfenamic acid as shown in FIGS. 4A and 4B. Tau phosphorylated at Ser 235 was lowered by about 15% as indicated by one-way ANOVA (F(2,11)=6.105, p=0.0165), Tukey-Kramer post-test p<0.05 for the C vs the 5 mg/kg group and for the C vs the 50 mg/kg group. P-tau at Thr 181 was lowered by about 30%, one-way ANOVA F(2,10)=7.272, p=0.0112, Tukey-Kramer post-test p<0.05 for the C vs the 5 mg/kg group and for the C vs the 50 mg/kg group.

[6] = system: tau phosphorylated at Thr 181; assay: P-tau at Thr 181 by Western blotting; assay type: in vivo, mice; settings: 5 and 50 mg/kg groups vs control, p<0.05
Method: as §3

In the case of Cc1c(Cl)cccc1Nc1ccccc1C(=O)O [tolfenamic acid], the “improvement in the behavioral profile (spontaneous alternation, Y-maze)” value ([1]; 5 mg/kg/day) is reported as “did not reach significance”, the “increase in the spontaneous alternation ratio in Y-maze” value ([1]; 50 mg/kg/day) is reported as “significant” and the “reduction of total tau protein levels” value (tau protein) is reported as 46%. For the same compound, the “% time spent in the target quadrant, probe trials (long-term memory retention)” value ([2]; 5 and 50 mg/kg/day, Day 1 and 11 following the 8 daily training sessions) was “significant increase”, the “spatial learning profile (escape latency) in daily trials” value ([2]; both doses (5 and 50 mg/kg/day), oral gavage, transgenic mice 20-24 months) was “improved” and the “lowering in CDK5 levels from control” value (CDK5 [3]; 50 mg/kg dose group vs control, Tukey-Kramer p<0.05) was 40%. For the same compound, the “CDK5 levels, lowering trend by one-way ANOVA” value (CDK5 [3]; all dose groups, one-way ANOVA F(2,8)=4.086, p=0.059) was “not significant”, the “lowering of tau mRNA expression” value (tau gene) was 48% and the “lowering of CDK5 gene expression in the cerebral cortex” value (CDK5 [4]) was “about 50%”. For the same compound, the “lowering of tau phosphorylated at Ser 235” value [5] was “about 15%” and the “lowering of P-tau at Thr 181” value [6] was “about 30%”.
